In ChEMBL document CHEMBL1201862, “PubChem BioAssay data set” (2004):
Active and inactive are the calls of the source.

Tests used:
[1] = biological target: 72 kDa type IV collagenase (Homo sapiens, UniProt P08253); assay: Dose Response validation of uHTS RPN11 inhibitor hits using a MMP-2 Fluorescence assay.; format: functional
[2] = enhancers of respiration in Yfh1-depleted yeast, dose response, Friedreich's ataxia, plus single-dose screen (AID 1465); format: functional;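 note: yeast depleted of Yfh1p frataxin homolog grown on glycerol needing respiration; WST-1 tetrazolium dye reduction as measure of cellular dehydrogenase metabolic activity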
Prothrombin = Prothrombin (Bos taurus, UniProt P00735); assay: thrombin inhibition, dose response, biochemical, fluorescence polarization, uHTS hits (AID 602369); format: functional
[3] = biological target: 26S proteasome non-ATPase regulatory subunit 14 (Homo sapiens, UniProt O00487); assay: inhibition of proteasome subunit RPN11 – biochemical, fluorescence polarization, uHTS hits, confirmation (AID 602368); format: functional
26S proteasome non-ATPase regulatory subunit 14, sequence (O00487 whole entry): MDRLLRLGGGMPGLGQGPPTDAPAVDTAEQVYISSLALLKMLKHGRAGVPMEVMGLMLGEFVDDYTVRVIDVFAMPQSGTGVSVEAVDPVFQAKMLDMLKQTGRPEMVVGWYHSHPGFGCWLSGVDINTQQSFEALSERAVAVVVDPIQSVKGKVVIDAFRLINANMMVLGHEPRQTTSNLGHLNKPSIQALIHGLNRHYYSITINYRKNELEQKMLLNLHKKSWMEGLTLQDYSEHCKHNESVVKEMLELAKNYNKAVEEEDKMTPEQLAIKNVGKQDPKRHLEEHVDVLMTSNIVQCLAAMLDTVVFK

[4] = biological target: G-protein coupled receptor 55 (Homo sapiens, UniProt Q9Y2T6); assay: GPR55 agonists via beta-arrestin recruitment, primary screen, imaging, U2OS cells, beta-arrestin-GFP redistribution (AID 1961); format: functional
G-protein coupled receptor 55, sequence (Q9Y2T6 whole entry): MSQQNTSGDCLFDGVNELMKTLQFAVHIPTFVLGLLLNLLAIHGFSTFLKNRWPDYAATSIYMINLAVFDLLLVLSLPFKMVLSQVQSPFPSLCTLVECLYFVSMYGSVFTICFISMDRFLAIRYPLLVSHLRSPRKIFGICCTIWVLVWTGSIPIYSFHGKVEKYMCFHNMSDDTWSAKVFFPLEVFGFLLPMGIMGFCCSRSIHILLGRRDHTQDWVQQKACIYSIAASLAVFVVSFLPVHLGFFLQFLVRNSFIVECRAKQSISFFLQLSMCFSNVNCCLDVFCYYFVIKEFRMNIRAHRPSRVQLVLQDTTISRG

[5] = biological target: T1, Lytic switch protein BZLF1 (Epstein-Barr virus (strain B95-8) (HHV-4) (Human herpesvirus 4), UniProt P03206); assay: EBV ZTA inhibitors, dose response, counter-screen for EBNA-1 inhibitor project, biochemical, fluorescence polarization, Epstein-Barr virus, 1536-well (AID 2377); design: species or system human gammaherpesvirus 4;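 note: fluorescence polarization of Cy5-labelled ZRE DNA probe bound by purified Zta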
T1 sequence (P03206 whole entry): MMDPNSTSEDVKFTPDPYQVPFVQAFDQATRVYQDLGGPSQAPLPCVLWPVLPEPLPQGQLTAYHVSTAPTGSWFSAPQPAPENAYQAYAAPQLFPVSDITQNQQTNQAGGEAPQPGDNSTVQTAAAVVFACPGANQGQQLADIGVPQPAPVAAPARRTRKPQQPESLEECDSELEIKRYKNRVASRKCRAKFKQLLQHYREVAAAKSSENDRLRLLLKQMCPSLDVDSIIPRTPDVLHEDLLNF

[6] = biological target: T2, Epstein-Barr nuclear antigen 1 (Epstein-Barr virus (strain B95-8) (HHV-4) (Human herpesvirus 4), UniProt P03211); assay: EBNA-1 inhibitors, dose response, biochemical, fluorescence polarization, 1536-well (AID 2381); design: species or system human gammaherpesvirus 4;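 note: fluorescence polarization of a Cy5 DNA probe bound by EBNA-1 protein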
T2 sequence (P03211 whole entry): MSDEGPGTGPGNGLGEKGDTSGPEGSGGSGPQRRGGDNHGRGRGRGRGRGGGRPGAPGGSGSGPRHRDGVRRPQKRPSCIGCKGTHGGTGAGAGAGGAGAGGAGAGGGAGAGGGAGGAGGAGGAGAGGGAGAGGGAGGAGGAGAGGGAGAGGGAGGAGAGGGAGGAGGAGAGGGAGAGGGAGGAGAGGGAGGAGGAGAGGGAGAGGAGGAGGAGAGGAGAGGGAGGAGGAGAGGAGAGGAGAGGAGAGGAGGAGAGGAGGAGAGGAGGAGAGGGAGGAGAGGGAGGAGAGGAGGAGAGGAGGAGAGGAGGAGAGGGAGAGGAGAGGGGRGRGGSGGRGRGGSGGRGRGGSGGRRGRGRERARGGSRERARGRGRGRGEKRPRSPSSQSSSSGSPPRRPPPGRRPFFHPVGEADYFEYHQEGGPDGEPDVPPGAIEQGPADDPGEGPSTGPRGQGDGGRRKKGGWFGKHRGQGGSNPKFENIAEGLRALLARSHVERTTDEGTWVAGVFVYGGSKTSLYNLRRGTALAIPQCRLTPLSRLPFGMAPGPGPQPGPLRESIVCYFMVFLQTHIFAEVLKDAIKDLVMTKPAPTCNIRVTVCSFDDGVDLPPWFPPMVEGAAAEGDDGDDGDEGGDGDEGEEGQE

[7] = biological target: T3, Acyl-homoserine lactone acylase PvdQ (Pseudomonas aeruginosa (strain LESB58), UniProt Q9I194); assay: P. aeruginosa PvdQ acylase inhibitors, dose response, biochemical, fluorescence, plate reader and imaging, cherry-picks (AID 493231)
T3 sequence (Q9I194 whole entry): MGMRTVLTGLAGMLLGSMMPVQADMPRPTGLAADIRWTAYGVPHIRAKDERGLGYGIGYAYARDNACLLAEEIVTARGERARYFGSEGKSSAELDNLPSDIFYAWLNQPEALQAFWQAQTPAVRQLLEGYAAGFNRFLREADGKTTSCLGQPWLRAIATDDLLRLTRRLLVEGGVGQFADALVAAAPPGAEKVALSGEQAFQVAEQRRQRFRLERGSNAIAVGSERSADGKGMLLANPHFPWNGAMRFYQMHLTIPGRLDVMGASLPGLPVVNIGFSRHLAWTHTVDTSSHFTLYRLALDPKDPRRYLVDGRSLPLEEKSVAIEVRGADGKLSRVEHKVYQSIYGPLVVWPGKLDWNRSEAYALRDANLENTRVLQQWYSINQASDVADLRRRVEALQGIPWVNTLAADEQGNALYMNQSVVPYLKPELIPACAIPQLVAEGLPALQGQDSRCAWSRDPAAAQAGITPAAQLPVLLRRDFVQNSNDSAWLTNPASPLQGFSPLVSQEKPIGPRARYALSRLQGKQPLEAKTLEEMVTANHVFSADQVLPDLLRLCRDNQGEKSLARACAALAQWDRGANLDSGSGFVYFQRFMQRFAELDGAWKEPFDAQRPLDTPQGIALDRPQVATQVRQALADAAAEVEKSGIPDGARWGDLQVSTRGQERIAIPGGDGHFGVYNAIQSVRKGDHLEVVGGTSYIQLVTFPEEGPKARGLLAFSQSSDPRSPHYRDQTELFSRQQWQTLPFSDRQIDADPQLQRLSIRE

[8] = biological target: G-protein coupled receptor 35 (Homo sapiens, UniProt Q9HC97); assay: GPR35 antagonists blocking zaprinast-driven arrestin recruitment, primary screen, imaging, U2OS, beta-arrestin-GFP, zaprinast agonist (AID 2058); format: functional;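 note: antagonist potency meaning inhibition of agonist-induced arrestin redistribution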
G-protein coupled receptor 35, sequence (Q9HC97 whole entry): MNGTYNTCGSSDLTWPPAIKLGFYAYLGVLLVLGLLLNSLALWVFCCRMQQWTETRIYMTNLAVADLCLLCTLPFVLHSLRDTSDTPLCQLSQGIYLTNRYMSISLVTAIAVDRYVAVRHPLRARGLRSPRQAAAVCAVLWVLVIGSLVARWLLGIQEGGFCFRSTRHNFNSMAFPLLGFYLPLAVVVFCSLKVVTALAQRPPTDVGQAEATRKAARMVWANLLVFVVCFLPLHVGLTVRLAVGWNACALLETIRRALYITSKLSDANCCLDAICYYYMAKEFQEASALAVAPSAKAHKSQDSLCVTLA

[9] = biological target: T4, Endoribonuclease toxin MazF (Escherichia coli K-12, UniProt P0AE70); assay: fluorescent RNA oligo signal without MazF, dose response, counter-screen for MazEF activator project, biochemical, fluorescence, single-stranded RNase substrate (AID 588502); format: functional
T4 sequence (P0AE70 whole entry): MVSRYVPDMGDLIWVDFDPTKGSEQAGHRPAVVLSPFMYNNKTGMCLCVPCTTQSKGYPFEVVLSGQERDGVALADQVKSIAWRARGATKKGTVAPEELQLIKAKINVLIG

BJ [10] = assay: cells; format: functional, cell-based; details: Homo sapiens
[11] = biological target: T4, Endoribonuclease toxin MazF; assay: MazF toxin RNase activators, dose response, biochemical, fluorescence, single-stranded RNA substrate, uHTS hits (AID 588481); format: functional
[12] = cytotoxicity toward DRD oncogenic fibroblasts, dose response, cell-based, non-viral oncogenic, luminescence (AID 1934); format: functional; details: Homo sapiens
BJ [13] = assay: cytotoxicity toward BJ-TERT fibroblasts, dose response, cell-based, RAS-independent, luminescence (AID 1933); format: functional; details: Homo sapiens
BJ [14] = assay: cytotoxicity toward BJ-TERT-LT-ST fibroblasts, dose response, cell-based, RAS-independent, luminescence (AID 1935); format: functional; details: Homo sapiens;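 note: BJ fibroblasts immortalized with TERT plus LT and ST oncogenes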
HT-1080 = assay: cytotoxicity in HT1080 fibrosarcoma cells, cell-based, fluorescence readout (AID 620); format: functional; details: Homo sapiens
[15] = LGR2 antagonists, dose response, cell-based, HEK293, CRE-luciferase reporter, cherry pick, set 2 (AID 743343); format: functional;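 note: transfected cells were stimulated with diluted bursicon conditioned medium after compound addition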
[16] = HepG2 cell cytotoxicity, dose response, cytotoxicity control, plate reader, cherry-pick, antagonist series (AID 743416); format: functional, cell-based
[17] = biological target: Luciferin 4-monooxygenase (Photinus pyralis, UniProt P08659); assay: Counter Screen for Luciferase-based Assay Positives. [Related pubchem assays: 620, 618, 411 ]
Luciferin 4-monooxygenase, sequence (P08659 whole entry): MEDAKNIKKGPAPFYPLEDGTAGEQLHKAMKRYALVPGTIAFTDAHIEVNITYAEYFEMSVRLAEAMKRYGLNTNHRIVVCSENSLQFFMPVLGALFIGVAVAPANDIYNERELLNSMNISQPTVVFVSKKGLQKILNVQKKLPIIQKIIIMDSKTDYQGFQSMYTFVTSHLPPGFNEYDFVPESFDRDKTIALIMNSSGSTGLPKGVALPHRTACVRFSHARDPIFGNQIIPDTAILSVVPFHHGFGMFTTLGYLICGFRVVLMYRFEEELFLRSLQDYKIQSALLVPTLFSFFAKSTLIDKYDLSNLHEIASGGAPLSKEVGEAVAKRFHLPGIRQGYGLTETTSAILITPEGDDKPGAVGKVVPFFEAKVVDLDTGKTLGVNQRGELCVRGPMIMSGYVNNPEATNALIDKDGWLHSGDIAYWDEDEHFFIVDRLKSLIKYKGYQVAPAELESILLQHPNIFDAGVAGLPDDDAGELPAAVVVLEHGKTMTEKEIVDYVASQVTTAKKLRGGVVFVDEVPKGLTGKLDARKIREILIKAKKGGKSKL

[18] = MC4R antagonists, dose response, counter-screen for LGR2 antagonist project, cell-based, plate reader, cherry pick (AID 743444); format: functional;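 note: transfected HEK 293 cells stimulated with alpha-MSH peptide; potency of inhibitors of the alpha-MSH evoked signal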
[19] = biological target: T5, Short transient receptor potential channel 4 (Mus musculus, UniProt Q9QUQ5); assay: mouse TRPC4 channel inhibitors, dose response, cell-based, HEK293 TRPC4/mu-opioid, Fluo-4 calcium (AID 434942); format: functional;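 note: potency of inhibitors blocking the TRPC4 calcium response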
T5 sequence (Q9QUQ5 whole entry): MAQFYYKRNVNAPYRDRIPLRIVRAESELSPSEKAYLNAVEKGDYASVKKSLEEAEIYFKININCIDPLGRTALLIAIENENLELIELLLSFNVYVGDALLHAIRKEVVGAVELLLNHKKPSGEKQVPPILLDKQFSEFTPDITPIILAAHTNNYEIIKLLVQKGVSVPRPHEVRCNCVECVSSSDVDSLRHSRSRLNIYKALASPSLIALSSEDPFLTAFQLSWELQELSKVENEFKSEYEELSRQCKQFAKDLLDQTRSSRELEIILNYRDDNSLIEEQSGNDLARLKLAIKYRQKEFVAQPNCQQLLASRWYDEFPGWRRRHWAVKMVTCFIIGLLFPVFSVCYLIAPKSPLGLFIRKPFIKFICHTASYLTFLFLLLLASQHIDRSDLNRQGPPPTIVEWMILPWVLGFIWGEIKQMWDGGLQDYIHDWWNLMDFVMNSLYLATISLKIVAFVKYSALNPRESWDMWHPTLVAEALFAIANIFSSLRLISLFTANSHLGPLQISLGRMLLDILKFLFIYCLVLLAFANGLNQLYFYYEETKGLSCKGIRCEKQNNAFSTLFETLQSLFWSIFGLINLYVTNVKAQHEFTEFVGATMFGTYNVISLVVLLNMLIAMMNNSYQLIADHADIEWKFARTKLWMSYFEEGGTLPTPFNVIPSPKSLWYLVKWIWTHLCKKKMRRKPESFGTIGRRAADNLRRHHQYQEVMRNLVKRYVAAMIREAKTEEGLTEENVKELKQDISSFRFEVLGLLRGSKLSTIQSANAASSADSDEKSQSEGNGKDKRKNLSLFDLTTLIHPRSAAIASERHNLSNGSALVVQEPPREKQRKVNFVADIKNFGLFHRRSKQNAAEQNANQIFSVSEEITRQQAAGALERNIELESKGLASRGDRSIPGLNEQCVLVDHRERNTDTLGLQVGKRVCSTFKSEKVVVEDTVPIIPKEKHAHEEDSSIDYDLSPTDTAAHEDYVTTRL

72 kDa type IV collagenase, sequence (P08253 whole entry): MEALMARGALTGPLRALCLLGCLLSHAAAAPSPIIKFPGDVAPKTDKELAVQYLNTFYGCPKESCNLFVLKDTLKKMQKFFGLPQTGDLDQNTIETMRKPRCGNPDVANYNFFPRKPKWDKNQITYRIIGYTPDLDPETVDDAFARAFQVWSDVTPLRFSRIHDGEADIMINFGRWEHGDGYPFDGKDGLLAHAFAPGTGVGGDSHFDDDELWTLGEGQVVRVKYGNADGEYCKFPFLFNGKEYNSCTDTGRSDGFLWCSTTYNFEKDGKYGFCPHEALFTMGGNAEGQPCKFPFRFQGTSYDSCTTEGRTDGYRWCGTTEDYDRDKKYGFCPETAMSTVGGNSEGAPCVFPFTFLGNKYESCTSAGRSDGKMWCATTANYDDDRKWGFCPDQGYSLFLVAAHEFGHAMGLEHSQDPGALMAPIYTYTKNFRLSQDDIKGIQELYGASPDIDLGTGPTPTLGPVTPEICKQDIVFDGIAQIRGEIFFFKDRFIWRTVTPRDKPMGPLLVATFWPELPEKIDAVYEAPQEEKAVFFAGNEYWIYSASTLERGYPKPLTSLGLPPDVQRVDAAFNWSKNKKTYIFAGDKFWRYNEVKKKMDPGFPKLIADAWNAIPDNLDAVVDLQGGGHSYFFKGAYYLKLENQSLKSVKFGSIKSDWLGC

O=[N+]([O-])c1ccc(N2CCCCC2)s1
IC50 [1]: > 100 µM (inactive) | EC50 [2]: > 100 µM (active) | IC50 (Prothrombin): 68 µM (active) | IC50 [3]: 36.1 µM (active)

CCCN(CCC)Cc1c(C(=O)N/N=C/C(C)=C\c2ccccc2)nnn1-c1nonc1N
EC50 [4]: 0.525 µM (active)

Cc1ccc(NC(=O)CSc2ccc(-c3ccc4c(c3)OCO4)nn2)cc1F
IC50 [5]: > 111 µM (not active) | IC50 [6]: 4.44 µM (active)

CCOC(=O)c1ccc(N2Cc3ccccc3C2=N)cc1
AC50 [7]: 3.83 µM (active)

N#Cc1c2ncn(CC(=O)c3ccc(Br)cc3)c(=O)c2c2n1CCC2
IC50 [5]: > 111 µM (not active) | IC50 [6]: 13.1 µM (not active)

O=C1C=C(c2cccc(Cl)c2)C[C@@H](c2ccc(F)cc2)C1
AC50 [7]: 9.81 µM (active)

CN1C(=O)C(=Cc2ccc(N3CCOCC3)o2)C(=O)N(C)C1=O
EC50 [2]: > 100 µM (active)

COCCN1C(=O)/C(=C/c2ccc(N3CCCC3)cc2)SC1=S
IC50 [8]: < 0.5 µM (active) | EC50 [9]: > 99 µM (inactive) | EC50 (BJ [10]): > 150 µM (not active) | EC50 [11]: > 99 µM (inactive) | EC50 [12]: 49.7 µM (active) | EC50 (BJ [13]): 20.9 µM (inconclusive) | EC50 (BJ [14]): > 150 µM (not active)

COC(=O)c1cc(-c2cccc(OC)c2)on1
AC50 [7]: > 100 µM (inactive)

Oc1c2c(nc3cc(-c4ccc(F)cc4)nn13)CCCC2
EC50 (HT-1080): 33.8 µM (active) | AC50 [15]: 7.51 µM (active) | AC50 [16]: > 52 µM (inactive) | EC50 [17]: 79.7 µM (active) | AC50 [18]: 6.58 µM (active)

CCn1c(=O)n(CCOC)c(=O)c2c3c(sc21)CCCC3
EC50 [19]: 1.19 µM (active)
